Data: PubChem BioAssay AID330 (DTP/NCI, 2004)
“And” between values parts separate entries of the source, which are not always exact repeats. Identical values can stand only once. Toxic doses and inconclusive results are not listed.

Tested on: P388 leukemia ip, CD2F1 mice, survival T/C
Assay: NCI In Vivo Anticancer Drug Screen. Data for tumor model P388 Leukemia (intraperitoneal) in CD2F1 (CDF1) mice
Conditions: endpoint: median survival time, higher = longer survival
Summary of the method: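 Mice carrying the transplanted tumor received test compound or vehicle. Survival was recorded in each group, and the value is the treated-group measurement divided by that of the vehicle-treated control group.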

[1] = dose: 100.0 mg/kg/injection, schedule: Q01DX001 (ip), vehicle: saline with Tween-80
[2] = dose: 200.0 mg/kg/injection, schedule: Q01DX001 (ip), vehicle: saline with Tween-80
[3] = dose: 400.0 mg/kg/injection, schedule: Q01DX001 (ip), vehicle: saline with Tween-80
[4] = dose: 50.0 mg/kg/injection, schedule: Q01DX009 (ip), vehicle: Klucel (hydroxypropylcellulose) (HPC)
[5] = dose: 50.0 mg/kg/injection, schedule: Q01DX005 (ip), vehicle: saline with Tween-80
[6] = dose: 100.0 mg/kg/injection, schedule: Q01DX005 (ip), vehicle: saline with Tween-80
[7] = dose: 50.0 mg/kg/injection, schedule: Q01DX005 (ip), vehicle: saline
[8] = dose: 100.0 mg/kg/injection, schedule: Q01DX005 (ip), vehicle: saline
[9] = dose: 200.0 mg/kg/injection, schedule: Q01DX005 (ip), vehicle: saline
[10] = dose: 60.0 mg/kg/injection, schedule: Q01DX005 (ip), vehicle: Klucel (hydroxypropylcellulose) (HPC)
[11] = dose: 120.0 mg/kg/injection, schedule: Q01DX005 (ip), vehicle: Klucel (hydroxypropylcellulose) (HPC)
[12] = dose: 50.0 mg/kg/injection, schedule: Q01DX009 (ip), vehicle: saline with Tween-80
[13] = dose: 60.0 mg/kg/injection, schedule: Q01DX005 (ip), vehicle: saline
[14] = dose: 120.0 mg/kg/injection, schedule: Q01DX005 (ip), vehicle: saline

In the case of `CN(C)C1(c2ccc3ccccc3c2)CSC1`, the T/C [1] is reported as 100 % of control, the T/C [2] is reported as 100 % of control and the T/C [3] is reported as 96 % of control.

`Cc1cc(=O)n2c(-c3ccccc3)csc2n1` was tested, and the T/C (dose: 100.0 mg/kg/injection, schedule: Q04DX003 (ip), vehicle: Klucel (hydroxypropylcellulose) (HPC)) was 101 % of control, the T/C (dose: 200.0 mg/kg/injection, schedule: Q04DX003 (ip), vehicle: Klucel (hydroxypropylcellulose) (HPC)) was 110 % of control and the T/C (dose: 400.0 mg/kg/injection, schedule: Q04DX003 (ip), vehicle: Klucel (hydroxypropylcellulose) (HPC)) was 113 % of control.

In the case of `CC(C)CC(=O)NC(C(=O)NC(C(=O)NC(CC(C)C)C(O)CC(=O)NC(C)C(=O)NC(CC(C)C)C(O)CC(=O)O)C(C)C)C(C)C` (stereo unspecified), the T/C (dose: 6.25 mg/kg/injection, schedule: Q01DX009 (ip), vehicle: Klucel (hydroxypropylcellulose) (HPC)) is reported as 102 % of control, the T/C [4] is reported as 98 % of control and 122 % of control and 87 % of control and the T/C (dose: 100.0 mg/kg/injection, schedule: Q01DX009 (ip), vehicle: Klucel (hydroxypropylcellulose) (HPC)) is reported as 90 % of control and 95 % of control.

In the case of `O=P(CCC(O)c1ccccc1)(c1ccccc1)c1ccccc1` (stereo unspecified), the T/C (dose: 25.0 mg/kg/injection, schedule: Q01DX009 (ip), vehicle: saline sonified) is reported as 100 % of control and the T/C (dose: 50.0 mg/kg/injection, schedule: Q01DX009 (ip), vehicle: saline sonified) is reported as 90 % of control.

For `CC(C)CN(CC(C)C)CN(CC(C)C)CC(C)C`, the T/C [5] was 100 % of control and the T/C [6] was 119 % of control.

For `C1CN2CCCN3CCCN(C1)P23`, the T/C (dose: 100.0 mg/kg/injection, schedule: Q04DX002 (ip), vehicle: saline) was 115 % of control and the T/C (dose: 200.0 mg/kg/injection, schedule: Q04DX002 (ip), vehicle: saline) was 98 % of control.

In the case of `CCC1(CC)C(=O)NC(=O)NC1(OC)OC`, the T/C [7] is reported as 98 % of control, the T/C [8] is reported as 106 % of control and the T/C [9] is reported as 100 % of control.

`COC(=O)C(Nc1ccc(OC)cc1)c1ccccc1` (stereo unspecified) was tested, and the T/C [10] was 108 % of control, the T/C [11] was 104 % of control and the T/C (dose: 240.0 mg/kg/injection, schedule: Q01DX005 (ip), vehicle: Klucel (hydroxypropylcellulose) (HPC)) was 110 % of control.

For `NC1(c2ccccc2)CON=C(c2ccccc2)C1` (stereo unspecified), the T/C (dose: 6.25 mg/kg/injection, schedule: Q04DX003 (ip), vehicle: saline) was 109 % of control, the T/C (dose: 12.5 mg/kg/injection, schedule: Q04DX003 (ip), vehicle: saline) was 104 % of control and the T/C (dose: 25.0 mg/kg/injection, schedule: Q04DX003 (ip), vehicle: saline) was 102 % of control. For the same compound, the T/C (dose: 100.0 mg/kg/injection, schedule: Q04DX003 (ip), vehicle: saline) was 100 % of control.

With `c1c[se]c(-c2nc3ccccc3[nH]2)c1` the T/C (dose: 12.5 mg/kg/injection, schedule: Q01DX005 (ip), vehicle: Klucel (hydroxypropylcellulose) (HPC)) was 99 % of control, the T/C (dose: 25.0 mg/kg/injection, schedule: Q01DX005 (ip), vehicle: Klucel (hydroxypropylcellulose) (HPC)) was 107 % of control and the T/C (dose: 50.0 mg/kg/injection, schedule: Q01DX005 (ip), vehicle: Klucel (hydroxypropylcellulose) (HPC)) was 110 % of control. For the same compound, the T/C (dose: 100.0 mg/kg/injection, schedule: Q01DX005 (ip), vehicle: Klucel (hydroxypropylcellulose) (HPC)) was 107 % of control.

In the case of `CC(C)[NH-].CC(C)[NH-].[Cl][Pt+2]([Cl])([Cl])[Cl]`, the T/C (dose: 22.0 mg/kg/injection, schedule: Q01DX009 (ip), vehicle: saline with Tween-80) is reported as 155 % of control, the T/C (dose: 33.0 mg/kg/injection, schedule: Q01DX009 (ip), vehicle: saline with Tween-80) is reported as 165 % of control and the T/C [12] is reported as 152 % of control.

For `O=C1C=C[C@@H](COC(c2ccccc2)(c2ccccc2)c2ccccc2)O1`, the T/C (dose: 100.0 mg/kg/injection, schedule: Q04DX002 (ip), vehicle: saline with Tween-80) was 92 % of control, the T/C (dose: 200.0 mg/kg/injection, schedule: Q04DX002 (ip), vehicle: saline with Tween-80) was 86 % of control and the T/C (dose: 400.0 mg/kg/injection, schedule: Q04DX002 (ip), vehicle: saline with Tween-80) was 89 % of control.

With `C/C(=N\OC(=O)CNOC(C)(C)C)c1ccccn1` the T/C [1] was 103 % of control, the T/C [2] was 99 % of control and the T/C [3] was 99 % of control.

For `COc1ccc(Cc2ccc3c(c2)OCO3)cc1C`, the T/C [7] was 104 % of control, the T/C [8] was 104 % of control and the T/C [9] was 111 % of control.

For `CCOC(=O)C1=CCC(n2cc(F)c(=O)[nH]c2=O)O1` (stereo unspecified), the T/C (dose: 50.0 mg/kg/injection, schedule: Q01DX009 (ip), vehicle: saline) was 98 % of control, the T/C (dose: 100.0 mg/kg/injection, schedule: Q01DX009 (ip), vehicle: saline) was 101 % of control and the T/C (dose: 200.0 mg/kg/injection, schedule: Q01DX009 (ip), vehicle: saline) was 99 % of control. The T/C (dose: 400.0 mg/kg/injection, schedule: Q01DX009 (ip), vehicle: saline) was 110 % of control.

For `COc1cc2c(c(OC)c1OC)-c1ccc(SC)c(=O)cc1[C@@H](NC(=O)Oc1ccccc1)CC2`, the T/C (dose: 5.0 mg/kg/injection, schedule: Q01DX009 (ip), vehicle: Klucel (hydroxypropylcellulose) (HPC)) was 164 % of control.

`COc1ccc(Cn2nnc(C(N)=O)c2Cl)cc1` was tested, and the T/C (dose: 100.0 mg/kg/injection, schedule: Q01DX001 (ip), vehicle: Klucel (hydroxypropylcellulose) (HPC)) was 99 % of control, the T/C (dose: 200.0 mg/kg/injection, schedule: Q01DX001 (ip), vehicle: Klucel (hydroxypropylcellulose) (HPC)) was 99 % of control and the T/C (dose: 400.0 mg/kg/injection, schedule: Q01DX001 (ip), vehicle: Klucel (hydroxypropylcellulose) (HPC)) was 89 % of control.

In the case of `CCCCN(CCC#N)c1ccc(/C=C/c2ccnc3ccccc23)cc1`, the T/C (dose: 25.0 mg/kg/injection, schedule: Q01DX009 (ip), vehicle: Klucel (hydroxypropylcellulose) (HPC)) is reported as 96 % of control and the T/C [4] is reported as 96 % of control.

For `C[C@H](N)C(O)/C=C/c1ccccc1` (stereo partly specified), the T/C (dose: 10.0 mg/kg/injection, schedule: Q01DX005 (ip), vehicle: saline) was 103 % of control, the T/C (dose: 20.0 mg/kg/injection, schedule: Q01DX005 (ip), vehicle: saline) was 93 % of control and the T/C (dose: 40.0 mg/kg/injection, schedule: Q01DX005 (ip), vehicle: saline) was 97 % of control.

`CNc1ccc2c(cc1=O)C(NC(C)=O)CCc1cc(OC)c(OC)c(OC)c1-2` (stereo unspecified) was tested, and the T/C (dose: 0.08 mg/kg/injection, schedule: Q01DX009 (ip), vehicle: Klucel (hydroxypropylcellulose) (HPC)) was 157 % of control, the T/C (dose: 0.12 mg/kg/injection, schedule: Q01DX009 (ip), vehicle: Klucel (hydroxypropylcellulose) (HPC)) was 157 % of control and the T/C (dose: 0.16 mg/kg/injection, schedule: Q01DX009 (ip), vehicle: Klucel (hydroxypropylcellulose) (HPC)) was 174 % of control. For the same compound, the T/C (dose: 0.25 mg/kg/injection, schedule: Q01DX009 (ip), vehicle: Klucel (hydroxypropylcellulose) (HPC)) was 150 % of control and the T/C (dose: 0.32 mg/kg/injection, schedule: Q01DX009 (ip), vehicle: Klucel (hydroxypropylcellulose) (HPC)) was 166 % of control.

`CC(=O)OC1C(C(O)CO)OC2OC(C)(C)OC21` (stereo unspecified) was tested, and the T/C [13] was 100 % of control, the T/C [14] was 105 % of control and the T/C (dose: 240.0 mg/kg/injection, schedule: Q01DX005 (ip), vehicle: saline) was 96 % of control.

`CCN(CC)c1ccc(NC(=S)NN)cc1` was tested, and the T/C [10] was 100 % of control and the T/C [11] was 97 % of control.

`COC(=O)c1cc(-c2ccco2)n2c(NC(=O)Nc3ccc(Cl)cc3)nnc2n1` was tested, and the T/C [5] was 98 % of control, the T/C [6] was 103 % of control and the T/C (dose: 200.0 mg/kg/injection, schedule: Q01DX005 (ip), vehicle: saline with Tween-80) was 95 % of control.

`CSc1ncc(/C(C)=N\N=C(N)N)c(C)n1` was tested, and the T/C (dose: 15.0 mg/kg/injection, schedule: Q01DX005 (ip), vehicle: saline) was 103 % of control and 97 % of control, the T/C (dose: 30.0 mg/kg/injection, schedule: Q01DX005 (ip), vehicle: saline) was 93 % of control and 98 % of control and the T/C [13] was 94 % of control and 97 % of control. For the same compound, the T/C [14] was 99 % of control.

`Cc1cccc(NC(=O)CCc2ccc(N3C(N)=NC(N)=NC3(C)C)cc2)c1` was tested, and the T/C [12] was 118 % of control, the T/C (dose: 50.0 mg/kg/injection, schedule: Q04DX003 (ip), vehicle: saline sonified) was 118 % of control and the T/C (dose: 100.0 mg/kg/injection, schedule: Q04DX003 (ip), vehicle: saline sonified) was 113 % of control. The T/C (dose: 132.0 mg/kg/injection, schedule: Q01DX009 (ip), vehicle: saline with Tween-80) was 118 % of control and the T/C (dose: 200.0 mg/kg/injection, schedule: Q04DX003 (ip), vehicle: saline sonified) was 118 % of control.
